From patent US20140275063A1, “NEW ENZYME INHIBITOR COMPOUNDS” (PROXIMAGEN LIMITED, priority 2011, published 2014)
Structures can show the parent of a compound that is named as a salt.

The molecules below were run against T1, human SSAO (Homo sapiens, UniProt Q16853) (assay: SSAO inhibitory activity (HRP-coupled hydrogen peroxide detection or 14C-benzaldehyde detection, benzylamine substrate)). Conditions: purified recombinantly expressed human SSAO, benzylamine as substrate, RT.
T1 construct: made in house
T1 sequence (Q16853 29-763 limits assumed): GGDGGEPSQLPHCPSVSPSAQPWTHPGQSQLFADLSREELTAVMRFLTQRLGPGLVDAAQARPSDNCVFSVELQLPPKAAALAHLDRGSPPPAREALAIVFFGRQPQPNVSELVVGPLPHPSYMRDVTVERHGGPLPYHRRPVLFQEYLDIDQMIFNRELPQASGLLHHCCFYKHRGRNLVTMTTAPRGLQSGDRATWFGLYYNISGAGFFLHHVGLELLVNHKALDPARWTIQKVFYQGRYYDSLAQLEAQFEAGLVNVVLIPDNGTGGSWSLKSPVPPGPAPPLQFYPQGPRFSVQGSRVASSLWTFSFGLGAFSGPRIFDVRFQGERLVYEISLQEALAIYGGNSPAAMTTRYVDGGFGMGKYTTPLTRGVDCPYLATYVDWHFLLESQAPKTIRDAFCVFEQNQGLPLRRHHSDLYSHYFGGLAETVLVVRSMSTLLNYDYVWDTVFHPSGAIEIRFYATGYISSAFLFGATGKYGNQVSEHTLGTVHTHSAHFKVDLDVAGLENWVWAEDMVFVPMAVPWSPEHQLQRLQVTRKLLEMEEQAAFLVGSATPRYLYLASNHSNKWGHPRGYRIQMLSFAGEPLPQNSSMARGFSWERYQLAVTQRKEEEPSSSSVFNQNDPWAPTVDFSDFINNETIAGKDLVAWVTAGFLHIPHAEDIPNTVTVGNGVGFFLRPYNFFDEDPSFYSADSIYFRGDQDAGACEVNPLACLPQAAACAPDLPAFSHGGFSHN
Type: biochemical
Method: All primary assays were performed at RT. with purified recombinantly expressed human SSAO. Enzyme was prepared essentially as described in Öhman et al. (Protein Expression and Purification 46 (2006) 321-331). In addition, secondary- and selectivity assays were performed using SSAO prepared from various tissues or purified rat recombinant SSAO. The enzyme activity was assayed with benzylamine as substrate by measuring either benzaldehyde production, using ^14C-labeled substrate, or by utilizing the production of hydrogen peroxide in a horseradish peroxidase (HRP) coupled reaction. Briefly, test compounds were dissolved in dimethyl sulfoxide (DMSO) to a concentration of 10 mM. Dose-response measurements were assayed by either creating 1:10 serial dilutions in DMSO to produce a 7 point curve or by making 1:3 serial dilutions in DMSO to produce 11 point curves. The top concentrations were adjusted depending on the potency of the compounds and subsequent dilution in reaction buffer yielded a final DMSO concentration ≦2%.
In a horseradish peroxidase (HRP) coupled reaction, hydrogen peroxide oxidation of 10-acetyl-3,7-dihydroxyphenoxazine produced resorufin, which is a highly fluorescent compound (Zhout and Panchuk-Voloshina. Analytical Biochemistry 253 (1997) 169-174; Amplex® Red Hydrogen Peroxideperoxidase Assay kit, Invitrogen A22188). Enzyme and compounds in 50 mM sodium phosphate, pH 7.4 were set to pre-incubate in flat-bottomed microtiter plates for approximately 15 minutes before initiating the reaction by addition of a mixture of HRP, benzylamine and Amplex reagent. Benzylamine concentration was fixed at a concentration corresponding to the Michaelis constant, determined using standard procedures. Fluorescence intensity was then measured at several time points during 1-2 hours, exciting at 544 nm and reading the emission at 590 nm. For the human SSAO assay final concentrations of the reagents in the assay wells were: SSAO enzyme 1 μg/ml, benzylamine 100 μM, Amplex reagent 20 μM, HRP 0.1 U/mL and varying concentrations of test compound. The inhibition was measured as % decrease of the signal compared to a control without inhibitor (only diluted DMSO). The background signal from a sample containing no SSAO enzyme was subtracted from all data points. Data was fitted to a four parameter logistic model and IC50 values were calculated using the Graph Pad Prism 4 or XLfit 4 programs.
SSAO activity was assayed using 14C-labeled benzylamine and analysed by measuring radioactive benzaldehyde. In a white 96-well optiplate (Packard), 20 μL of diluted test compound was pre-incubated at RT. with 20 μL SSAO enzyme for approximately 15 minutes with continuous agitation. All dilutions were made with PBS. The reaction was initiated by adding 20 μL of the benzylamine substrate solution containing [7-14C] Benzylamine hydrochloride (CFA589, GE Healthcare). The plate was incubated for 1 hour as above after which the reaction was stopped by acidification (10 μL 1 M HCl). Then 90 μL Micro Scint-E solution (Perkin-Elmer) was added to each well and the plate was continuously mixed for 15 minutes. Phase separation occurred instantly and activity was read in a Topcount scintillation counter (Perkin-Elmer). In the final reaction well, the human recombinant SSAO concentration was 10 μg/ml. In order to optimize sensitivity, the substrate concentration was decreased as compared to the HRP coupled assay in order to get a higher fraction of radioactive product. In the human SSAO assay, benzylamine concentration was 40 μM (0.2 μCi/mL). Data was analysed as above.

Compound	IC50
CN1CCC(NC(=O)N2CCC(c3cn(-c4ccc(Cl)cc4)c4cnccc34)CC2)CC1 [Compound 8, 4-[1-(4-Chlorophenyl)-1H-pyrrolo[2,3-c]pyridin-3-yl]-N-(1-methylpiperidin-4-yl)piperidine-1-carboxamide]	< 100 nM
Clc1ccc(-n2nc(N3CCOCC3CN3CCOCC3)c3ccncc32)cc1 (stereo not shown) [Compound 41, 4-[1-(4-Chlorophenyl)-1H-pyrazolo[3,4-c]pyridin-3-yl]-3-(morpholin-4-ylmethyl)morpholine]	100 to 500 nM
CC(C)N1CCN(C(=O)N2CCC(c3cn(-c4ccc(Cl)cc4)c4cnccc34)CC2)CC1 [Compound 17, 1-({4-[1-(4-Chlorophenyl)-1H-pyrrolo[2,3-c]pyridin-3-yl]piperidin-1-yl}carbonyl)-4-(propan-2-yl)piperazine]	< 100 nM
CN1CCC(CNC(=O)C2CCCCN2c2nn(-c3ccc(Cl)cc3)c3cnccc23)CC1 (stereo not shown) [Compound 43, 1-[1-(4-Chlorophenyl)-1H-pyrazolo[3,4-c]pyridin-3-yl]-N-[(1-methylpiperidin-4-yl)methyl]piperidine-2-carboxamide]	100 to 500 nM
NC(=O)CN1CCC(CNC(=O)N2CCC(c3cn(-c4ccc(Cl)cc4)c4cnccc34)CC2)CC1 [Compound 14, N-{[1-(Carbamoyl-methyl)piperidin-4-yl]methyl}-4-[1-(4-chlorophenyl)-1H-pyrrolo[2,3-c]pyridin-3-yl] piperidine-1-carboxamide; formic acid]	< 100 nM
CCNC(=O)N1CCN(CC2CN(c3nn(-c4ccc(Cl)cc4)c4cnccc34)CCO2)CC1 (stereo not shown) [Compound 39, 4-({4-[1-(4-Chlorophenyl)-1H-pyrazolo[3,4-c]pyridin-3-yl]morpholin-2-yl}methyl)-N-ethylpiperazine-1-carboxamide]	100 to 500 nM
O=C(NCCN1CCOCC1)N1CCC(c2cn(-c3ccc(Cl)cc3)c3cnccc23)CC1 [Compound 22, 4-[1-(4-Chlorophenyl)-1H-pyrrolo[2,3-c]pyridin-3-yl]-N-[2-(morpholin-4-yl)ethyl]piperidine-1-carboxamide]	< 100 nM
Cc1ccc(-n2nc(N3CCOC(CNCCN)C3)c3ccncc32)cc1 (stereo not shown) [Compound 33, (2-Aminoethyl)({4-[1-(4-methylphenyl)-1H-pyrazolo[3,4-c]pyridin-3-yl]morpholin-2-yl}methyl)amine trihydrochloride]	100 to 500 nM
COCCN1CCC(CNC(=O)N2CCC(c3cn(-c4ccc(Cl)cc4)c4cnccc34)CC2)CC1 [Compound 28, 4-[1-(4-Chlorophenyl)-1H-pyrrolo[2,3-c]pyridin-3-yl]-N-{[1-(2-methoxyethyl)piperidin-4-yl]methyl}piperidine-1-carboxamide; formic acid]	< 100 nM

Results, then the molecule that gave them:

IC50	Compound
500 to 2500 nM	O=C(O)CC1COCCN1c1nn(-c2ccc(Cl)cc2)c2cnccc12 (stereo not shown) [Compound 53, 2-{4-[1-(4-Chlorophenyl)-1H-pyrazolo[3,4-c]pyridin-3-yl]morpholin-3-yl}acetic acid hydrochloride]
100 to 500 nM	CN1CCC(CNC(=O)CC2COCCN2c2nn(-c3ccc(Cl)cc3)c3cnccc23)CC1 (stereo not shown) [Compound 58, 2-{4-[1-(4-Chlorophenyl)-1H-pyrazolo[3,4-c]pyridin-3-yl]morpholin-3-yl}-N-[(1-methylpiperidin-4-yl)methyl] acetamide]
100 to 500 nM	Clc1ccc(-n2nc(N3CCC(CNCC4CCNCC4)CC3)c3ccncc32)cc1 [Compound 50, ({1-[1-(4-Chlorophenyl)-1H-pyrazolo[3,4-c]pyridin-3-yl]piperidin-4-yl}methyl)(piperidin-4-ylmethyl)amine]
< 100 nM	NCCNC(=O)CC1COCCN1c1nn(-c2ccc(Cl)cc2)c2cnccc12 (stereo not shown) [Compound 54, N-(2-Aminoethyl)-2-{4-[1-(4-chlorophenyl)-1H-pyrazolo[3,4-c]pyridin-3-yl]morpholin-3-yl}acetamide dihydrochloride]
< 100 nM	O=C(NC(c1nn[nH]n1)C1CC1)N1CCC(c2cn(-c3ccc(Cl)cc3)c3cnccc23)CC1 (stereo not shown) [Compound 62, 4-[1-(4-Chlorophenyl)-1H-pyrrolo[2,3-c]pyridin-3-yl]-N—[cyclopropyl(2H-1,2,3,4-tetrazol-5-yl)methyl]piperidine-1-carboxamide; trifluoroacetic acid]
< 100 nM	CC(=O)OC1CCN(c2nn(-c3ccc(C)cc3)c3cnccc23)CC1 [Compound 52, 1-[1-(4-Methylphenyl)-1H-pyrazolo[3,4-c]pyridin-3-yl]piperidin-4-yl acetate]
< 100 nM	CN1CCC(CNC(=O)N2CCN(c3nn(-c4ccc(Cl)cc4)c4cnccc34)CC2)CC1 [Compound 51, 4-[1-(4-Chlorophenyl)-1H-pyrazolo[3,4-c]pyridin-3-yl]-N-[(1-methylpiperidin-4-yl)methyl]piperazine-1-carboxamide]
